Measured values from patent US20090325959A1 (priority 2008, published 2009).
Like-named read-outs stand apart in the source and are kept apart here.

Assays:
[1] = Compound plasma concentrations in unsensitized mice at 15 min post administration; assay type: in vivo; details: mouse, 15 μmol/kg; mean compound plasma concentration in mice at 15 minutes post oral administration; read-out: Mouse Oral PK
Description: Additionally, compound concentrations were determined in the plasma and lungs of male, ovalbumin-sensitized, Balb/c mice from a murine model of asthma. Test compounds were formulated in water or 1% polysorbate 80 and dosed at 15 μmol/kg for intraperitoneal (IP) or oral (PO) administration or formulated for intratracheal (IT) administration and dosed at 5 μmol/kg, which directly targets the lungs. Following completion of the in vivo study, mice were euthanized and blood and plasma collected approximately 2.5-3 hours post administration of test compound for bronchodialator (BD) studies and 24 hours post administration for anti-inflamatory (AI) studies. Lungs were homogenized in Matrix A lysing tubes using a FastPrep 24 tissue and cell homogenizer (MP Biomedicals, Solon, Ohio). Both plasma samples and lung extracts were assayed for compound concentrations using an on-line, solid phase extraction LC/MS/MS system.

p70S6K human enzyme = biological target: T1, p70S6K human enzyme (Homo sapiens, UniProt P23443, T412E); assay: p70S6K inhibition assay (IMAP FP); assay type: biochemical;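 note: kinase reaction run at room temperature, phosphorylated substrate captured on IMAP beads and read as fluorescence polarization in mP, IC50 then converted to Ki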
T1 construct: purchased Upstate Chemicon 14-486
T1 sequence (P23443 1-421 T412E limits assumed): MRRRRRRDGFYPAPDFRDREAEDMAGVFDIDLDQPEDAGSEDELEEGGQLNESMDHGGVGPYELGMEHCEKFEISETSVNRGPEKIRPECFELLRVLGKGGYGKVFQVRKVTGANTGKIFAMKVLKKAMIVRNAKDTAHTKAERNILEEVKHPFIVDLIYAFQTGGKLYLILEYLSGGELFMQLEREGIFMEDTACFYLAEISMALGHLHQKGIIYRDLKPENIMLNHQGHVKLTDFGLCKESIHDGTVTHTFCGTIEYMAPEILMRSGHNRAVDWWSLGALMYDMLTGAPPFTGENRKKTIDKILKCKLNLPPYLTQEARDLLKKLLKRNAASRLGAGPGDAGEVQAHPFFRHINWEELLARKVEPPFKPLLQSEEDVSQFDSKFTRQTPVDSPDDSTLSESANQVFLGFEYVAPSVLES

Akt3 human enzyme = biological target: T2, Akt3 human enzyme (Homo sapiens, UniProt Q9Y243); assay: Akt3 inhibition assay (IMAP FP); assay type: biochemical;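 note: kinase reaction run 60 min at room temperature after 30 µM ATP start, phosphorylated substrate captured on IMAP beads and read as fluorescence polarization (mP)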
T2 construct: purchased Upstate Chemicon 14-502
T2 sequence (Q9Y243 whole entry): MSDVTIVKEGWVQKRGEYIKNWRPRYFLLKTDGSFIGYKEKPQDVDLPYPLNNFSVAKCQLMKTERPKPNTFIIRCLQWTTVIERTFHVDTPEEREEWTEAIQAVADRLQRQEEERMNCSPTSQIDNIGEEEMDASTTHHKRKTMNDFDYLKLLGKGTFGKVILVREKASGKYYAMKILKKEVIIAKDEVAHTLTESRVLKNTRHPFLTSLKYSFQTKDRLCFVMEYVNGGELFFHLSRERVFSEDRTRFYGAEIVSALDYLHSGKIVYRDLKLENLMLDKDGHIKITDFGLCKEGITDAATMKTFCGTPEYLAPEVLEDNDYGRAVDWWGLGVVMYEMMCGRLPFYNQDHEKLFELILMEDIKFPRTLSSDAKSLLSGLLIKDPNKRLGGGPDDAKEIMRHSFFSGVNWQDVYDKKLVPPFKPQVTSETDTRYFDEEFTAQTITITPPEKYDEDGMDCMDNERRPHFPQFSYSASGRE

ROCK2 = biological target: T3, ROCK2 (Homo sapiens, UniProt O75116); assay: Rho kinase inhibition assay (IMAP fluorescence polarization), ROCK2; assay type: biochemical;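 note: kinase reaction started with 10 µM ATP and run 60 min at room temperature, then phosphorylated substrate captured on IMAP beads for 30 min and fluorescence polarization read in mP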
T3 construct: purchased Upstate/Chemicon 14-451
T3 sequence (O75116 11-552 limits assumed): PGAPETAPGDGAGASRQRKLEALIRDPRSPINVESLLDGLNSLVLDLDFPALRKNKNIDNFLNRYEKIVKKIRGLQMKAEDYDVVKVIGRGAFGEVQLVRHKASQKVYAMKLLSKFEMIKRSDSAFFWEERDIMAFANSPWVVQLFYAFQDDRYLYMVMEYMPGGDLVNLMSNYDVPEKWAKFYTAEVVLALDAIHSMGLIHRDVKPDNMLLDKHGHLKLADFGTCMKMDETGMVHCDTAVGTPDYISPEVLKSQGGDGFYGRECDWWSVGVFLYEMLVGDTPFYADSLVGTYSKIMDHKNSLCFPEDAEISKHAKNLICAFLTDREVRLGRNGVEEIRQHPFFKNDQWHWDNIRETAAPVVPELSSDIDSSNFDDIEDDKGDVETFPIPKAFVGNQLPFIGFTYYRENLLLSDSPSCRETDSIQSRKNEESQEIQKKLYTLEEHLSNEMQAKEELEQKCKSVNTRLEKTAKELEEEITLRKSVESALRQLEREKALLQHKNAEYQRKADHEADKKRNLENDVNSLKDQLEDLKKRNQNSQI
Description: (§1) Following the pre-incubation, 10 μM ATP was added to initiate the reaction. After 60 minutes at room temperature, Molecular Devices IMAP™ binding solution was added to bind phosphorylated substrate. After 30 minutes of incubation in the presence of the IMAP™ beads, the fluorescence polarization was read and the ratio was reported as mP. IC50 values for compounds and EC50 values for ATP were calculated using the Prism software from Graphpad.

ROCK1 = biological target: T4, ROCK1 (Homo sapiens, UniProt Q13464); assay: Rho kinase inhibition assay (IMAP fluorescence polarization), ROCK1; assay type: biochemical;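 note: kinase reaction run 60 min at room temperature, then phosphorylated substrate captured on IMAP beads for 30 min, with fluorescence polarization read in mP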
T4 construct: purchased Upstate/Chemicon 14-601
T4 sequence (Q13464 17-535 limits assumed): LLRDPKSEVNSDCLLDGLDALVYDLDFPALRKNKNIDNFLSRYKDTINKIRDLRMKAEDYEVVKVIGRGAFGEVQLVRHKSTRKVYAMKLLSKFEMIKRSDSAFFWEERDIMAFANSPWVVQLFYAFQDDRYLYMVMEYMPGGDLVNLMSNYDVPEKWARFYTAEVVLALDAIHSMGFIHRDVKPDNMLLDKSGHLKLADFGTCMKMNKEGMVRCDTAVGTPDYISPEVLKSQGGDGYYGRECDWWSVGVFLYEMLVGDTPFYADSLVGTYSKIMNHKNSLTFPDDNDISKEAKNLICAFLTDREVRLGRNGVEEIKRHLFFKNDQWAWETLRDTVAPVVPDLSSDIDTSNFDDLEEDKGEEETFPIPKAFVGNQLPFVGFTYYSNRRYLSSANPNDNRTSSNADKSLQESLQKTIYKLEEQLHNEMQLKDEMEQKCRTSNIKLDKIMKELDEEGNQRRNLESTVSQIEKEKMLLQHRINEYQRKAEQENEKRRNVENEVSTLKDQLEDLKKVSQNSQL
Description: as §1

[2] = 30 μM ATP, Ki=IC50/(1+([ATP Challenge]/EC50 ATP)), read-out: p70S6K Ki, Avg
[3] = average Ki, read-out: p70S6K Ki
[4] = 30 μM ATP, Ki=IC50/(1+([ATP Challenge]/EC50 ATP)), read-out: Akt3 Ki, Avg
[5] = 10 μM ATP, read-out: ROCK2 Ki, Avg

SMILES	concentration at 15 min [1] [nM]	Ki (p70S6K human enzyme; [2]) [µM]	Ki (p70S6K human enzyme; [3]) [µM]	Ki (Akt3 human enzyme; [4]) [µM]	Ki (Akt3 human enzyme; average Ki, read-out: Akt3 Ki) [µM]	Ki (ROCK2; [5]) [µM]	Ki (ROCK2; average Ki, read-out: ROCK2 Ki) [µM]	Ki (ROCK1; Avg, 10 μM ATP) [µM]	Ki (ROCK1; average Ki) [µM]
c1cc2cc(CN3CCC[C@H](Nc4ccc5[nH]ncc5c4)C3)ccc2[nH]1 [Compound 1.149, (S)-N-(1-((1H-indol-5-yl)methyl)piperidin-3-yl)-1H-indazol-5-amine]	1560	1.89	1.89	7.4	7.4	0.0042	0.0042	0.0468	0.0468
OCCN1CCc2ccc(CN3CCC[C@H](Nc4ccc5[nH]ncc5c4)C3)cc21 [Compound 1.217, (S)-2-(6-((3-(1H-indazol-5-ylamino)piperidin-1-yl)methyl)indolin-1-yl)ethanol]	293	3.5	3.5	10.3	10.3	0.0121	0.0121	0.0701	0.0701
c1cc(N[C@@H]2CCN(Cc3ccc4occc4c3)C2)c2ccncc2c1 [Compound 2.055, (R)-N-(1-(benzofuran-5-ylmethyl)pyrrolidin-3-yl)isoquinolin-5-amine]	656	0.312	0.312	0.978	0.978	0.0064	0.0064	0.016	0.016
Cc1ccc(CN2CCC[C@@H](Nc3ccc4[nH]ncc4c3)C2)c(C)c1 [Compound 1.137, (R)-N-(1-(2,4-dimethylbenzyl)piperidin-3-yl)-1H-indazol-5-amine]	557	0.354	0.354	0.198	0.198	0.0051	0.0072	0.0258	0.0363
C#Cc1cccc(CN2CCC[C@H](Nc3ccc4[nH]ncc4c3)C2)c1 [Compound 1.153, (S)-N-(1-(3-ethynylbenzyl)piperidin-3-yl)-1H-indazol-5-amine]	522	2.38	2.38	9.95	9.95	0.0042	0.0042	0.0628	0.0628
CSc1ccc(CN2CCC[C@H](Nc3ccc4[nH]ncc4c3)C2)cc1 [Compound 1.075, (S)-N-(1-(4-(methylthio)benzyl)piperidin-3-yl)-1H-indazol-5-amine]	348	0.975	0.975	5.32	5.32	0.0044	0.0044	0.0487	0.0487
c1cc2c(cc1CN1CCC[C@H](Nc3ccc4[nH]ncc4c3)C1)OCCO2 [Compound 1.166, (S)-N-(1-((2,3-dihydrobenzo[b][1,4]dioxin-6-yl)methyl)piperidin-3-yl)-1H-indazol-5-amine]	342	5.16	5.16	18.1	18.1	0.008	0.008	0.0952	0.0952
Fc1ccc(CN2CCC[C@H](Nc3ccc4[nH]ncc4c3)C2)cc1 [Compound 1.164, (S)-N-(1-(4-fluorobenzyl)piperidin-3-yl)-1H-indazol-5-amine]	1500	1.96	1.96	4.31	4.31	0.0061	0.0061	0.0424	0.0424
NS(=O)(=O)c1cccc(CN2CCC[C@@H](Nc3ccc4[nH]ncc4c3)C2)c1 [Compound 1.249, (R)-3-((3-(1H-indazol-5-ylamino)piperidin-1-yl)methyl)benzenesulfonamide]	2150	0.937	0.937	1.6	1.6	0.0086	0.0086	0.0917	0.0917
